From US20110212434A1, “NOVEL HIV-BASED RECOMBINANT VIRAL CLONES AND USE THEREOF IN ANALYTICAL METHODS” (priority 2004, published 2011)

System: virus with the mutations M41L, K07R, T215F, K219Q
Assay: Determination system for phenotypic resistances to antiretroviral drugs (renilla activity, recombinant viral clones)
Type: cell-based, HIV
Details: K219Q versus wild type virus, FIG. 2b
Procedure: It can be schematically seen in FIGS. 1a and 1b how the viral particles are produced in culture supernatants during the 48 hours following transfection of the recombinat virus carrying viral sequences amplified from patients's plasma in 293T cells. The 293T cell line was obtained from the Deposit of the ATCC. The progeny of recombinant viruses are collected 48 hours after transfection in and used to infect the SSPA-B7 clone as target. This cellular clone was obtained by the applicant from the MT-2 cell line by means of transfection of an expression vector of the gene CCR5 provided with a resistance marker for Genetycin. Expression of both major viral coreceptors (CCR5 as a transgene and CXCR4 naturally) allows the infection with viral carrying different envelopes that use CCR5, CXCR4 receptors or both. […] The capacity of the viruses to complete a replication cycle is quantified by measuring the luciferase activity in the target cells. When phenotypic resistance to protease inhibitors is analyzed, the drug should be added to the producer cell (293-T) because viral morphogenesis driven by the protease is generated in this step of the viral cycle. In contrast, phenotypic resistance towards inhibitors of reverse transcriptase and of entry is measured by adding the drugs to the infected cells because such processes (entry and retrotranscription) take place in the target cell. […]

Cc1cn([C@H]2C[C@H](N=[N+]=[N-])[C@@H](CO)O2)c(=O)[nH]c1=O [AZT]
Fold (AZT resistance): 36
